Values quoted from earlier work, collected in patent publication US7737327B2, “Methods for screening for genes and small molecules that activate mammalian receptor proteins” (The University of Kentucky Research Foundation, priority 2004, dated 2010).

How the values were obtained:
[1] = mice on a high-cholesterol diet
[2] = system: mouse mammary tumor virus promoter; conditions: only when low level of inducer (200 nm dexamethasone) present simultaneously

Row | Compound | effect on hepatic cholesterol [1] | effect on activity of mouse mammary tumor virus promoter [2]
1 | C/C=C1\C(=O)C[C@H]2[C@@H]3CCC4=CC(=O)CC[C@]4(C)[C@H]3CC[C@]12C [guggelsterone] | decrease hepatic cholesterol | –
2 | (−)-epigallocatechin-3-O-gallate | – | enhance the activity
